# Values quoted from earlier work, collected in patent US11154616B2, “Methods of treating locally advanced or metastatic breast cancers using PD-1 axis binding antagonists and taxanes” (Genentech, Inc., priority 2015, dated 2021).
# System: mTNBC
# Conditions: monotherapy in mTNBC
substance,measurement,value
MPDL3280A: humanized monoclonal anti-PD-L1 antibody that inhibits the binding of PD-L1 to PD-1,clinical response as a monotherapy,durable responses
